According to ChEMBL document CHEMBL1201862, “PubChem BioAssay data set” (2004):
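Briefly, cells in 96-well plates were exposed to five compound concentrations for 48 h, and endpoints were estimated by linear interpolation. GI50 = concentration required for 50% inhibition of growth.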 Calls of active or inactive are those of the source. Rule as the data show it: active = GI50 up to about 1.1 µM and inactive = higher.

Legend:
Experiment in all cases: NCI anticancer screen, dose series, 48 h
NCI-H23 = system: NCI-H23
M19-MEL = system: M19-MEL
OVCAR-8 = system: OVCAR-8
A498 = system: A498
SW-620 = system: SW-620
CCRF-CEM = system: CCRF-CEM
DMS-114 = system: DMS-114
SF-539 = system: SF-539
SF-295 = system: SF-295
SN12C = system: SN12C
IGROV-1 = system: IGROV-1
SNB-75 = system: SNB-75
EKVX = system: EKVX
HT-29 = system: HT-29
SNB-78 = system: SNB-78
A549 = system: A549
SK-MEL-2 = system: SK-MEL-2
SK-MEL-5 = system: SK-MEL-5
HOP-92 = system: HOP-92
OVCAR-4 = system: OVCAR-4
SNB-19 = system: SNB-19
HCC 2998 = system: HCC 2998
Malme-3M = system: Malme-3M
DMS-273 = system: DMS-273
ACHN = system: ACHN
COLO 205 = system: COLO 205
M14 = system: M14
OVCAR-5 = system: OVCAR-5
XF498 = system: XF498
UACC-257 = system: UACC-257
TK-10 = system: TK-10
NCI-H460 = system: NCI-H460
HCT-116 = system: HCT-116
HCT-15 = system: HCT-15
OVCAR-3 = system: OVCAR-3
SK-MEL-28 = system: SK-MEL-28
HOP-62 = system: HOP-62
LOX IMVI = system: LOX IMVI
SF-268 = system: SF-268
U-251 = system: U-251
RPMI-8226 = system: RPMI-8226
RXF 631 = system: RXF 631
DLD-1 = system: DLD-1
KM-20L2 = system: KM-20L2
UACC-62 = system: UACC-62
HOP-18 = system: HOP-18
786-0 = system: 786-0
KM12 = system: KM12
NCI-H226 = system: NCI-H226
K562 = system: K562
CAKI-1 = system: CAKI-1
SK-OV-3 = system: SK-OV-3
UO-31 = system: UO-31
RXF 393 = system: RXF 393
HL-60 = system: HL-60
NCI-H522 = system: NCI-H522
MOLT-4 = system: MOLT-4
LXFL 529 = system: LXFL 529

Measured: GI50

S=c1[nH]c2ccc(Br)cc2c(=S)n1-c1ccccc1
16.1 µM: HCT-15
inactive: NCI-H23 10.7 µM | M19-MEL 17.6 µM | OVCAR-8 30.5 µM | A498 32.4 µM | SW-620 32.7 µM | CCRF-CEM 11.8 µM | DMS-114 16.9 µM | SF-539 14.8 µM | SF-295 16.9 µM | SN12C 20.6 µM | IGROV-1 20.6 µM | SNB-75 34.2 µM | EKVX 37.2 µM | HT-29 21.9 µM | SNB-78 49.3 µM | A549 26.7 µM | SK-MEL-2 16.4 µM | SK-MEL-5 16.4 µM | HOP-92 20 µM | OVCAR-4 28.7 µM | SNB-19 5.85 µM | HCC 2998 13.7 µM | Malme-3M 17.5 µM | DMS-273 17.1 µM | ACHN 20.3 µM | COLO 205 22.2 µM | M14 20.7 µM | OVCAR-5 32.5 µM | XF498 19.1 µM | UACC-257 16.4 µM | TK-10 42.4 µM | NCI-H460 12.6 µM | HCT-116 8.75 µM | OVCAR-3 20.7 µM | SK-MEL-28 9.89 µM | HOP-62 24.4 µM | LOX IMVI 19.2 µM | SF-268 11 µM | U-251 6.58 µM | RPMI-8226 8.26 µM | RXF 631 26 µM | DLD-1 28.7 µM | KM-20L2 35.2 µM | UACC-62 10.5 µM | HOP-18 16.5 µM | 786-0 24.5 µM | KM12 16.9 µM | NCI-H226 24.5 µM | K562 29.2 µM | CAKI-1 29.2 µM | SK-OV-3 43.4 µM | UO-31 16.4 µM

O=C1C=Cc2ncccc2C1=O
18.1 µM: HCT-15
inactive: NCI-H23 20.3 µM | OVCAR-8 16.3 µM | RXF 393 20 µM | A498 > 54 µM | SW-620 15.4 µM | CCRF-CEM 7.05 µM | DMS-114 16.5 µM | SF-539 21.1 µM | SF-295 17.6 µM | SN12C 21.2 µM | IGROV-1 32.2 µM | SNB-75 21.3 µM | EKVX 23.5 µM | HT-29 22.2 µM | HL-60 5.22 µM | SNB-78 31 µM | A549 30.8 µM | SK-MEL-2 18.5 µM | SK-MEL-5 14.9 µM | HOP-92 21.1 µM | OVCAR-4 5.77 µM | SNB-19 > 78.3 µM | HCC 2998 > 48.1 µM | Malme-3M 29.9 µM | DMS-273 17 µM | ACHN 20.8 µM | NCI-H522 15.7 µM | COLO 205 18 µM | M14 18.1 µM | OVCAR-5 > 44.2 µM | XF498 24.6 µM | UACC-257 20 µM | TK-10 > 44.9 µM | NCI-H460 20 µM | HCT-116 16.9 µM | OVCAR-3 23.9 µM | MOLT-4 2.45 µM | SK-MEL-28 24.4 µM | HOP-62 > 54.8 µM | LOX IMVI 13.5 µM | SF-268 34.4 µM | U-251 24.4 µM | RPMI-8226 24.1 µM | RXF 631 21.4 µM | DLD-1 18.7 µM | KM-20L2 > 45.9 µM | UACC-62 16.8 µM | LXFL 529 16.5 µM | HOP-18 > 52 µM | 786-0 15.7 µM | KM12 33.7 µM | NCI-H226 > 44.9 µM | K562 7.71 µM | CAKI-1 21.1 µM | SK-OV-3 37.9 µM | UO-31 30.5 µM
